No end group written: not given here.
What was measured:
IDO = IDO expression (immunoblotting) and kynurenine production in DCs; format: cell-based, mouse
Method: IDO expression and functional activity were assessed as described in Nat. Immunol. […] Generation, purification and activity of T reg cells Splenic CD4+ T-cells were cocultured with conidia-pulsed DCs for 5 days […] before flow cytometry or ELISPOT assay. 1-MT (Sigma-Aldrich) was used at […].
Cells were assessed for IDO protein expression by immunoblotting and for kynurenine production. Positive and negative controls consisted of IDO protein-expressing MC24 transfectants and mock-transfected MC22 cells, respectively (not shown in the figure).

[1] = system: TLN CD4+ T lymphocytes, neutrophils; assay: Proliferation of TLN cells and suppressive activity of CD4+CD25+ T reg cells from DC-treated HSCT mice; format: in vivo, mouse
Method: IDO expression and functional activity were assessed as described in Nat. Immunol. 2002; 3:1097-1101. Generation, purification and activity of T reg cells Splenic CD4+ T-cells were cocultured with conidia-pulsed DCs for 5 days […] before flow cytometry or ELISPOT assay. 1-MT (Sigma-Aldrich) was used at 2 μM. CD4+CD25+ and CD4+CD25− cells (>90% pure on FACS analysis) were separated by magnetic cell sorting from lung and TLN (J. Immunol. 2006; 176:1712-1723). For T reg cell inhibition, 5×10^4 TLN T reg cells were added to 3×10^5 CD4+CD25− cells, both from transplanted mice, stimulated with 3×10^4 autologous Aspergillus conidia-pulsed spDCs or with or 1.5×10^5 allogeneic spDCs from naïve donor mice for five days before H^3-thymidine labeling. Purified peritoneal CD 11b+Gr−1+PMN (>98% pure on FACS analysis) (2×10^6) were exposed to resting conidia in the presence of 4×10^5 CD4+CD25+ for 60 min for oxidant production or 24 hours for cytokine production (J. Immunol. 2006; 176:1712-1723).
Mice received twice intraperitoneal injections of DCs, at weekly interval, starting a day after HSCT and infected a week after the last DC administration. Three days later, lung homogenates, CD4+ T cells (>98% on FACS analysis), CD4+CD25− (>98%) or CD4+CD25+ (>82%) purified with the specific Miltenyi Biotec isolation kits were assessed for pattern of pro- and anti-inflammatory (TNF-a/IL-10 in lung homogenates), Th1 (IFN-γ) or Th2 (IL-4) cytokine production by CD4+ cells stimulated with Aspergillus-pulsed DCs (Blood. 2003; 102:3807-3814) frequency of CD25+ IL-10^+ TGF-β+ T reg cells, lymphoproliferation and gene expression by RT-PCR. For proliferation, TLN CD4+ T lymphocytes were plated (10^5 cells/well) with 10^5 cells/well irradiated allogeneic splenocytes or autologous spDCs pulsed with conidia or 10 μg/mL Con A for five days before H^3-thymidine labeling.
(A) Murine CD4+ T lymphocytes from TLN of transplanted mice were stimulated with irradiated allogeneic splenocytes, autologous splenic DCs stimulated with conidia or Concanavalin A. T cell proliferation was assessed in a 5-day MLR assay and measured by H^3thymidine incorporation over the last 8 hours, (*) P<0.05, transplanted versus donor mice. (**) P<0.05, T cell- and/or DC-treated mice versus untreated mice. (***) P<0.05, Thymosin alpha 1-treated DCs versus untreated DCs. […] (D) Peritoneal neutrophils (PMN) were exposed to resting conidia in the presence of lung CD4+CD25+ T cells from FL-DCtreated (a) or Thymosin alpha 1-GM-DC-treated mice (b) for 60 min (for oxidant production, expressed as nanomoles O2-/10^6 cells) or 24 hours for cytokine production (pg/mL by ELISA). […]

CD4+ T cell clones = assay: Aspergillus-specific or alloreactive human T cell clones responding to DCs; format: cell-based; details: healthy donors or transplanted patients
Method: Aspergillus-specific human CD4+ T cell clones were generated from peripheral blood CD4+CD45RA+ T cells added at limiting dilution concentrations to irradiated (20 Gy) feeder autologous peripheral blood cells and stimulated with conidia-pulsed DCs or allogeneic DCs (Blood. 2005; 106:4397-4406). Growing clones were assessed for specificity against fungus-pulsed DCs, allogeneic DCs, autologous irradiated cells (as a negative control) and 0.5% phytohemoagglutinin (as a positive control) by H^3-thymidine (Amersham Biosciences, Little Chalfont, UK) labeling or cytokine content in supernatants 2 days later (Blood. 2005; 106:4397-4406).
(E) Frequency of Aspergillus-specific or alloreactive T cell clones responding to the different types of fungus-pulsed DCs or unpulsed DCs, respectively, from healthy donors or transplanted patients. Growing clones were assessed for specificity after 2 days of stimulation with DCs. (*) p<0.05, GM-DCs versus peripheral blood cells (−). (**) P<0.05, HSCT-DCs versus all other DCs. nd, not done.

[2] = mice receiving Thymosin alpha 1-treated GM-DCs

In the case of “Thymosin alpha 1: naturally occurring thymic peptide; supplied as purified, endotoxin-free sterile lyophilized acetylated polypeptide from SciClone Pharmaceuticals (Ac-SDAAVDTSSEITTKDLKEKKEVVEEAEN; UniProt P06454 2-29, looked up)”, the “induction of IDO protein and function in DCs from TLR9-/- or IFN-aβR-/- mice” value (IDO; DCs from knockout mice) is reported as “not observed”, the “induction of functional IDO (protein, tryptophan to kynurenine conversion)” value (IDO; FL-DCs and GM-DCs) is reported as “Induction of functional IDO by Thymosin alpha 1 in both FL-DCs and GM-DCs was confirmed” and the “TNF-a and oxidant production of neutrophils in the presence of lung T reg cells” value ([1]; T reg fraction induced by Thymosin alpha 1-treated GM-DCs) is reported as “significantly inhibited”. The “alloreactivity and antigen-specific responses of CD4+CD25- T cells in the presence of CD4+CD25+ T cells” value ([1]; T reg from mice receiving Thymosin alpha 1-treated GM-DCs) was “both reduced”, the “alloreactivity (proliferation of TLN cells to allogeneic splenocytes)” value [1, 2] was “decreased” and the “pathogen-specific reactivity (proliferation to Aspergillus conidia)” value [1, 2] was “recovered”. For the same substance, the “ability of DCs to activate fungus- or alloantigen-specific T cell reactivity” value (CD4+ T cell clones) was “modified neither the antigen-specific T cell responses induced by DCs nor the allostimulatory capacity”.
